# Like-named read-outs stand apart in the source and are kept apart here.
# Legend:
# [1] = test system: Bacillus anthracis V770-NP1-R; assay: microbe, parasite or virus in culture; format: cell-based; settings: V770NP1R, read-out: MIC BA
# [2] = test system: Staphyloccocus aureus USA300; assay: Minimum inhibitory concentration, broth microdilution, Staphylococcus aureus; format: cell-based; settings: for MIC: Staphylococcus aureus
# Staphylococcus aureus = assay: Minimum bactericidal concentration / bactericidal activity against SA; format: cell-based; settings: for MBC (100% killing of SA): 24 hours, n=4
# S. aureus biofilms = assay: Anti-staphylococcal biofilm activity (static biofilms, cfu); format: cell-based, Staphylococcus aureus
# human Hela cells = assay: Mammalian cytotoxicity assay (CellTiter 96 AQueous One); format: cell-based; settings: 24 h, highest concentration tested 100 μM, read-out: IC50 human Hela cell proliferation
# Bacillus anthracis = assay: microbe, parasite or virus in culture; settings: 1 h, read-out: reduction of BA culture viability
# [3] = Pharmacokinetics of pyrrolomycin 4 in mice (LC-MS/MS of plasma)
# [4] = Staphyloccocus aureus USA300, n ≥ 3, read-out: MIC SA
smiles,measurement,setting,value
COc1c(F)cc(F)cc1C(=O)c1c(Br)c(Br)c(Br)n1C [Compound 11],MIC,[1],> 4 µg/mL
same,MIC,[2]; [4],> 4 µg/mL
same,melting point,,107.4 to 108.1 °C
O=C(c1cc(Br)c[nH]1)c1cc(Cl)cc(Cl)c1O [Compound 19],MIC SA,"[2]; Staphyloccocus aureus USA300, n ≥ 3",>4.0 µg/mL
same,MIC,"[2]; USA300, read-out: MIC SA",> 4 µg/mL
Cn1c(Br)c(Br)c(Br)c1C(=O)c1cc(F)cc(F)c1O [Compound 12],MIC,[1],> 4 µg/mL
same,MIC,[2]; [4],> 4 µg/mL
same,melting point,,156.2 to 157.2 °C
"CN[C@H](CC(C)C)C(=O)N[C@H]1C(=O)N[C@@H](CC(N)=O)C(=O)N[C@H]2C(=O)N[C@H]3C(=O)N[C@H](C(=O)N[C@H](C(=O)O)c4cc(O)cc(O)c4-c4cc3ccc4O)[C@H](O)c3ccc(c(Cl)c3)Oc3cc2cc(c3O[C@@H]2O[C@H](CO)[C@@H](O)[C@H](O)[C@H]2O[C@H]2C[C@](C)(N)[C@H](O)[C@H](C)O2)Oc2ccc(cc2Cl)[C@H]1O [vancomycin, reference compound]",MIC,[2]; [4],2 µg/mL
same,MBC (100% killing of SA),Staphylococcus aureus,8 µg/mL
same,biofilm killing,"S. aureus biofilms; 24 hours, 32 μg/mL, n=4",11%
same,biofilm killing,"S. aureus biofilms; 120 hours, 32 μg/mL",39%
COc1c(F)cc(F)cc1C(=O)c1ccc[nH]1 [Compound 8],MIC,[1],> 4 µg/mL
same,MIC,[2]; [4],> 4 µg/mL
same,melting point,,85.7 to 87.1 °C
O=C(c1ccc[nH]1)c1cc(Cl)cc(Cl)c1O [Compound 15],MIC,[1],> 4 µg/mL
same,MIC,"[2]; USA300, read-out: MIC SA",> 4 µg/mL
O=C(c1cc(Br)c(Br)[nH]1)c1cc(Cl)cc(Cl)c1O [Compound 17],MIC,[1],0.188 µg/mL
same,MIC,"[2]; USA300, read-out: MIC SA",0.073 µg/mL
same,IC50,human Hela cells,> 41.4 µg/mL
O=C(c1cc(F)cc(F)c1O)c1[nH]c(Br)c(Br)c1Br [Compound 3],MIC,[1],0.031 µg/mL
same,MIC,[2]; [4],0.17 µg/mL
same,IC50,human Hela cells,> 46 µg/mL
same,melting point,,151.8 to 152.7 °C
O=C(c1cc(Br)c(F)[nH]1)c1cc(Cl)cc(Cl)c1O [Compound 4],MIC,[1],0.047 µg/mL
same,MIC,"[2]; USA300, read-out: MIC SA",0.073 µg/mL
same,IC50,human Hela cells,> 35.3 µg/mL
same,killing of SA,"Staphylococcus aureus; 4 μg/mL, no growth of colonies after incubation for 48 hours",100%
same,MBC (100% killing of SA),Staphylococcus aureus,4 µg/mL
same,biofilm killing,"S. aureus biofilms; 24 hours, 8.0 μg/mL, n=4",84%
same,biofilm killing,"S. aureus biofilms; 48 hours, 8.0 μg/mL",97%
same,biofilm killing,"S. aureus biofilms; 120 hours, 8.0 μg/mL",> 99.9%
same,inhibition at […],Bacillus anthracis,60%
same,oral bioavailability,[3]; 10 mg/kg oral vs 1.0 mg/kg IV,35%
same,elimination half-life,[3]; IV,6.04 h
same,time parent compound detectable in plasma,"[3]; IV and oral, detection limit 0.8 ng/mL",up to 72 hours
same,AUC,[3]; IV dose 1 mg/kg,3800 ng·h/mL
same,elimination half-life,[3]; oral,6.75 h
same,AUC,[3]; oral dose 10 mg/kg,13200 ng·h/mL
O=C(c1ccc[nH]1)c1cc(F)cc(F)c1O [Compound 9],MIC,[1],> 4 µg/mL
same,MIC,[2]; [4],> 4 µg/mL
same,melting point,,161.7 to 162.5 °C
COc1c(F)cc(F)cc1C(=O)c1[nH]c(Br)c(Br)c1Br [Compound 10],MIC,[1],1.5 µg/mL
same,MIC,[2]; [4],3 µg/mL
same,melting point,,178.9 to 179.7 °C
O=C(c1cc(Cl)cc(Cl)c1O)c1[nH]c(F)c(Br)c1Br [Compound 18],MIC,[1],0.125 µg/mL
same,MIC,[2]; [4],0.19 µg/mL
same,IC50,human Hela cells,> 43.2 µg/mL
same,melting point,,171.9 to 172.7 °C
same,inhibition at […],Bacillus anthracis,92%
